Key:
[1] = pure liquids at 25° C.; cited from earlier work
Mucin = assay: Mucoadhesion, tensile strength with texture analyzer, towards mucin; details: upper sample Mucin
Experimental: Mucoadhesion is related to the ability to adhere to the mucosa. […] Hygroscopic formulations absorbs water molecules but at different timescales depending on the composition. Tensile strength using micro balance texture analyzer was used to measure the mucoadhesion. The work needed to separate two layers from each other is calculated as well as the peak measured force.
The microemulsions show quite strong mucoadhesion, with similar tensile strength values. To get some reference values, the mucoadhesion of olive oil, propylene glycol and PGMO were also tested as well as the adhesion of microemulsions towards water. Propylene glycol was chosen to determine if humectant properties on its own had any influence on the adhesion strength.

Row | SMILES | Surface tension [1] [mN/m] | Peak force (Mucin) [kg] | Mucoadhesion (Mucin; work needed to separate layers) [kg·s]
1 | CC(O)CO (stereo not shown) [Propylene Glycol, propylene glycol] | 45.6 | 0.50 ± 0.05 | 0.051 ± 0.009
2 | OCC(O)CO [glycerol] | 76 | – | –

— patent US20170319641A1, “MUCOADHESIVE EMOLLIENT” (BIOGLAN AB, priority 2014, published 2017)
